Test results as given in patent US12098136B2, “Crystalline forms of lenalidomide” (BIOCON LIMITED, priority 2017, dated 2024).

Assays:
[1] = Hygroscopicity / weight change; assay type: physicochemical
[2] = Thermal stability (neat); assay type: physicochemical
[3] = system: Mouse; settings: in vivo; cited from earlier work

| Hygroscopicity ([1]; compared with Lenalidomide hemihydrate) | thermally stable up to (temperature) [2] [°C] | Structure (SMILES) | weight change [1] | Acute oral toxicity (LD50) [3] [mg/kg] |
| --- | --- | --- | --- | --- |
| lesser or comparable | ≥ 80 | Nc1cccc2c1CN(C1CCC(=O)NC1=O)C2=O (stereo not shown) [Lenalidomide-Resorcinol co-crystal] | does not exhibit significant weight change |  |
|  |  | O=C1NS(=O)(=O)c2ccccc21 [Saccharin] |  | 17000 |
